Reference: the supplement of paper PMC8612539
Converted amounts (≈) assume the structure as drawn.

System: Escherichia coli
Test: minimum inhibitory concentration (MIC)
Description: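 Broth microdilution MIC (Sensititre BOPO7F bovine plate, CLSI methods) of 19 antimicrobials against field isolates of P. multocida, M. haemolytica, H. somni (deep nasopharyngeal swabs) and E. coli, Enterococcus spp. (rectal swabs) from weaned dairy heifers. Incubation 16-24 h at 35 C. MIC is the lowest concentration preventing visible growth. Values with <= or > lie at the tested range limits. Trimethoprim-sulfamethoxazole is given as the trimethoprim component of a 1:19 mixture.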

CC[C@H]1OC(=O)C[C@@H](O)[C@H](C)[C@@H](O[C@@H]2O[C@H](C)[C@@H](O)[C@H](N(C)C)[C@H]2O)[C@@H](CCN2CCCCC2)C[C@@H](C)C(=O)/C=C/C(C)=C/[C@@H]1CN1CCCCC1 [Tildipirosin]
Settings | minimum inhibitory concentration [µg/mL]
isolate (source animal id): 8 | 4 (≈ 5.45 µM)
isolate (source animal id): 9 | 16 (≈ 21.8 µM)
isolate (source animal id): 10 | 8 (≈ 10.9 µM)
isolate (source animal id): 11 | 4 (≈ 5.45 µM)
isolate (source animal id): 12 | 4 (≈ 5.45 µM)
isolate (source animal id): 13 | 4 (≈ 5.45 µM)
isolate (source animal id): 14 | 4 (≈ 5.45 µM)
isolate (source animal id): 15 | 4 (≈ 5.45 µM)
isolate (source animal id): 16 | 4 (≈ 5.45 µM)
isolate (source animal id): 98 | 4 (≈ 5.45 µM)
isolate (source animal id): 99 | 4 (≈ 5.45 µM)
isolate (source animal id): 100 | 2 (≈ 2.72 µM)
isolate (source animal id): 101 | 4 (≈ 5.45 µM)
isolate (source animal id): 102 | 4 (≈ 5.45 µM)
isolate (source animal id): 103 | 4 (≈ 5.45 µM)
isolate (source animal id): 104 | 4 (≈ 5.45 µM)
isolate (source animal id): 105 | 4 (≈ 5.45 µM)
isolate (source animal id): 106 | 16 (≈ 21.8 µM)
isolate (source animal id): 107 | 8 (≈ 10.9 µM)
isolate (source animal id): 108 | 4 (≈ 5.45 µM)
isolate (source animal id): 109 | 4 (≈ 5.45 µM)
isolate (source animal id): 110 | 4 (≈ 5.45 µM)
isolate (source animal id): 111 | 4 (≈ 5.45 µM)
isolate (source animal id): 112 | 4 (≈ 5.45 µM)
isolate (source animal id): 113 | 4 (≈ 5.45 µM)
isolate (source animal id): 114 | 4 (≈ 5.45 µM)
isolate (source animal id): 115 | 8 (≈ 10.9 µM)
isolate (source animal id): 116 | 4 (≈ 5.45 µM)
isolate (source animal id): 117 | > 16
isolate (source animal id): 118 | 8 (≈ 10.9 µM)
isolate (source animal id): 119 | 8 (≈ 10.9 µM)
isolate (source animal id): 120 | 4 (≈ 5.45 µM)
isolate (source animal id): 121 | 4 (≈ 5.45 µM)
isolate (source animal id): 122 | 4 (≈ 5.45 µM)
isolate (source animal id): 123 | 4 (≈ 5.45 µM)
isolate (source animal id): 124 | 2 (≈ 2.72 µM)
isolate (source animal id): 125 | ≤ 1
isolate (source animal id): 126 | 4 (≈ 5.45 µM)
isolate (source animal id): 127 | 8 (≈ 10.9 µM)
isolate (source animal id): 128 | 4 (≈ 5.45 µM)
isolate (source animal id): 129 | 4 (≈ 5.45 µM)
isolate (source animal id): 130 | 4 (≈ 5.45 µM)
isolate (source animal id): 131 | 2 (≈ 2.72 µM)
isolate (source animal id): 132 | 4 (≈ 5.45 µM)
isolate (source animal id): 133 | 4 (≈ 5.45 µM)
isolate (source animal id): 134 | 4 (≈ 5.45 µM)
isolate (source animal id): 135 | 4 (≈ 5.45 µM)
isolate (source animal id): 136 | 4 (≈ 5.45 µM)
isolate (source animal id): 137 | 4 (≈ 5.45 µM)
isolate (source animal id): 138 | 4 (≈ 5.45 µM)
isolate (source animal id): 139 | 2 (≈ 2.72 µM)
isolate (source animal id): 140 | 4 (≈ 5.45 µM)
isolate (source animal id): 141 | 4 (≈ 5.45 µM)
isolate (source animal id): 142 | 4 (≈ 5.45 µM)
isolate (source animal id): 143 | 8 (≈ 10.9 µM)
isolate (source animal id): 144 | 4 (≈ 5.45 µM)
isolate (source animal id): 145 | 4 (≈ 5.45 µM)
isolate (source animal id): 146 | 8 (≈ 10.9 µM)
isolate (source animal id): 147 | 2 (≈ 2.72 µM)
isolate (source animal id): 148 | 4 (≈ 5.45 µM)
isolate (source animal id): 149 | 4 (≈ 5.45 µM)
isolate (source animal id): 150 | 4 (≈ 5.45 µM)
isolate (source animal id): 151 | 4 (≈ 5.45 µM)
isolate (source animal id): 152 | 4 (≈ 5.45 µM)
isolate (source animal id): 153 | 4 (≈ 5.45 µM)
isolate (source animal id): 154 | 4 (≈ 5.45 µM)
isolate (source animal id): 155 | 4 (≈ 5.45 µM)
isolate (source animal id): 156 | 4 (≈ 5.45 µM)
isolate (source animal id): 157 | 4 (≈ 5.45 µM)
isolate (source animal id): 158 | 4 (≈ 5.45 µM)
isolate (source animal id): 159 | 4 (≈ 5.45 µM)
isolate (source animal id): 160 | 4 (≈ 5.45 µM)
isolate (source animal id): 161 | 2 (≈ 2.72 µM)
isolate (source animal id): 162 | 4 (≈ 5.45 µM)
isolate (source animal id): 163 | 4 (≈ 5.45 µM)
isolate (source animal id): 164 | 4 (≈ 5.45 µM)
isolate (source animal id): 165 | 4 (≈ 5.45 µM)
isolate (source animal id): 166 | 4 (≈ 5.45 µM)
isolate (source animal id): 167 | 8 (≈ 10.9 µM)
isolate (source animal id): 168 | 4 (≈ 5.45 µM)
isolate (source animal id): 169 | 4 (≈ 5.45 µM)
isolate (source animal id): 170 | 4 (≈ 5.45 µM)
isolate (source animal id): 171 | 4 (≈ 5.45 µM)
isolate (source animal id): 172 | 4 (≈ 5.45 µM)
isolate (source animal id): 173 | 4 (≈ 5.45 µM)
isolate (source animal id): 174 | 4 (≈ 5.45 µM)
isolate (source animal id): 175 | 8 (≈ 10.9 µM)
isolate (source animal id): 176 | 8 (≈ 10.9 µM)
isolate (source animal id): 177 | 4 (≈ 5.45 µM)
isolate (source animal id): 178 | 4 (≈ 5.45 µM)
isolate (source animal id): 179 | 4 (≈ 5.45 µM)
isolate (source animal id): 180 | 4 (≈ 5.45 µM)
isolate (source animal id): 181 | 16 (≈ 21.8 µM)
isolate (source animal id): 182 | 8 (≈ 10.9 µM)
isolate (source animal id): 183 | 4 (≈ 5.45 µM)
isolate (source animal id): 184 | 8 (≈ 10.9 µM)
isolate (source animal id): 185 | 4 (≈ 5.45 µM)
isolate (source animal id): 186 | 4 (≈ 5.45 µM)
isolate (source animal id): 187 | 2 (≈ 2.72 µM)
isolate (source animal id): 188 | 4 (≈ 5.45 µM)

CC[C@H]1OC(=O)C[C@@H](O)[C@H](C)[C@@H](O[C@@H]2O[C@H](C)[C@@H](O)[C@H](N(C)C)[C@H]2O)[C@@H](CCN2C[C@H](C)C[C@H](C)C2)C[C@@H](C)C(=O)/C=C/C(C)=C/[C@@H]1CO[C@@H]1O[C@H](C)[C@@H](O)[C@@H](OC)[C@H]1OC [Tilmicosin]
Settings | minimum inhibitory concentration [µg/mL]
isolate (source animal id): 8 | > 16
isolate (source animal id): 9 | > 16
isolate (source animal id): 10 | > 16
isolate (source animal id): 11 | > 16
isolate (source animal id): 12 | > 16
isolate (source animal id): 13 | > 16
isolate (source animal id): 14 | > 16
isolate (source animal id): 15 | > 16
isolate (source animal id): 16 | > 16
isolate (source animal id): 98 | > 16
isolate (source animal id): 99 | > 16
isolate (source animal id): 100 | > 16
isolate (source animal id): 101 | > 16
isolate (source animal id): 102 | > 16
isolate (source animal id): 103 | > 16
isolate (source animal id): 104 | > 16
isolate (source animal id): 105 | > 16
isolate (source animal id): 106 | > 16
isolate (source animal id): 107 | > 16
isolate (source animal id): 108 | > 16
isolate (source animal id): 109 | > 16
isolate (source animal id): 110 | > 16
isolate (source animal id): 111 | > 16
isolate (source animal id): 112 | > 16
isolate (source animal id): 113 | > 16
isolate (source animal id): 114 | > 16
isolate (source animal id): 115 | > 16
isolate (source animal id): 116 | > 16
isolate (source animal id): 117 | > 16
isolate (source animal id): 118 | > 16
isolate (source animal id): 119 | > 16
isolate (source animal id): 120 | > 16
isolate (source animal id): 121 | > 16
isolate (source animal id): 122 | > 16
isolate (source animal id): 123 | > 16
isolate (source animal id): 124 | > 16
isolate (source animal id): 125 | 16 (≈ 18.4 µM)
isolate (source animal id): 126 | > 16
isolate (source animal id): 127 | > 16
isolate (source animal id): 128 | > 16
isolate (source animal id): 129 | > 16
isolate (source animal id): 130 | > 16
isolate (source animal id): 131 | > 16
isolate (source animal id): 132 | > 16
isolate (source animal id): 133 | > 16
isolate (source animal id): 134 | > 16
isolate (source animal id): 135 | > 16
isolate (source animal id): 136 | > 16
isolate (source animal id): 137 | > 16
isolate (source animal id): 138 | > 16
isolate (source animal id): 139 | > 16
isolate (source animal id): 140 | > 16
isolate (source animal id): 141 | > 16
isolate (source animal id): 142 | > 16
isolate (source animal id): 143 | > 16
isolate (source animal id): 144 | > 16
isolate (source animal id): 145 | > 16
isolate (source animal id): 146 | > 16
isolate (source animal id): 147 | > 16
isolate (source animal id): 148 | > 16
isolate (source animal id): 149 | > 16
isolate (source animal id): 150 | > 16
isolate (source animal id): 151 | > 16
isolate (source animal id): 152 | > 16
isolate (source animal id): 153 | > 16
isolate (source animal id): 154 | > 16
isolate (source animal id): 155 | > 16
isolate (source animal id): 156 | > 16
isolate (source animal id): 157 | > 16
isolate (source animal id): 158 | > 16
isolate (source animal id): 159 | > 16
isolate (source animal id): 160 | > 16
isolate (source animal id): 161 | > 16
isolate (source animal id): 162 | > 16
isolate (source animal id): 163 | > 16
isolate (source animal id): 164 | > 16
isolate (source animal id): 165 | > 16
isolate (source animal id): 166 | > 16
isolate (source animal id): 167 | > 16
isolate (source animal id): 168 | > 16
isolate (source animal id): 169 | > 16
isolate (source animal id): 170 | > 16
isolate (source animal id): 171 | > 16
isolate (source animal id): 172 | > 16
isolate (source animal id): 173 | > 16
isolate (source animal id): 174 | > 16
isolate (source animal id): 175 | > 16
isolate (source animal id): 176 | > 16
isolate (source animal id): 177 | > 16
isolate (source animal id): 178 | > 16
isolate (source animal id): 179 | > 16
isolate (source animal id): 180 | > 16
isolate (source animal id): 181 | > 16
isolate (source animal id): 182 | > 16
isolate (source animal id): 183 | > 16
isolate (source animal id): 184 | > 16
isolate (source animal id): 185 | > 16
isolate (source animal id): 186 | > 16
isolate (source animal id): 187 | > 16
isolate (source animal id): 188 | > 16
